The values that follow come from PubChem BioAssay AID1963978 (Molecular Pharmacology Branch, DTP, NCI, 2024).

Structures are written as SMILES.

In general, viability, T/C refers to the ratio of treated to control. In general, IC50 refers to the point on the concentration scale where inhibition reaches its midpoint.

For this test, the system named is 616215-338-R-J1-PDC spheroids with HUVEC/MSC, viability. Nature of the test: Anticancer human tumor 616215-338-R-J1-PDC patient-derived colon adenocarcinoma cell line growth inhibition [PI3K]. The note with it: for viability, T/C: stronger effect = lower value. An excerpt: Combinatorial screen of targeted agents with the PI3K inhibitors inavolisib, alpelisib, duvelisib, and copanlisib in multi-cell type tumor spheroids
A high-throughput screen of multi-cell type tumor spheroids was designed to identify active combinations of targeted small molecules and PI3K pathway inhibitors. Complex spheroids include a stromal component modeled by human endothelial cells (HUVEC) and fibroblasts modeled by human mesenchymal stem cells (MSCs). The concentration ranges selected for each drug and investigational agent were based upon clinically achievable concentrations if the clinical Cmax of the agent was known.
Compounds. The drugs and investigational agents: inavolisib (NSC800729), alpelisib (NSC765974), duvelisib (NSC772469), copanlisib (NSC816437), ipatasertib (NSC767898), afuresertib (NSC778305), talazoparib (NSC767125), sapanisertib (NSC764658), selumetinib (NSC741078), tovorafenib (DAY101, NSC766906), vemurafenib (NSC761431), ravoxertinib (NSC781343), sotorasib (NSC818433), MRTX1133 (NSC 836407), abemaciclib (NSC 768073), palbociclib (NSC758247), venetoclax (NSC 766270), SY5609 (NSC837396), enzalutamide (NSC755605), and darolutamide (NSC825331), were obtained from the National Cancer Institute (NCI) Developmental Therapeutics Program Chemical Repository. The FDA-approved anticancer drug set is available from the NCI Developmental Therapeutics Program. […] The stock solutions were prepared in dimethyl sulfoxide (DMSO, Sigma-Aldrich, St. Louis, MO, cat. D2650) at 800-fold the tested concentration and stored at -70 degrees C prior to their use. All drugs and investigational agents were tested over a range starting from a high concentration at or near the clinical Cmax and decreasing in half-log increments. If the clinical Cmax for an agent had not been determined, the highest concentration tested was 10 microM.
Cell Culture. All cells were maintained in an incubator at 37 degrees C and 5% CO2 with 95% humidity. The PDC lines were cultured according to standard operating procedures established by the NCI PDMR (https://pdmr.cancer.gov/sops/default.htm). All PDCs were thawed and cultured in Matrigel-coated flasks prepared with a working solution of 1X Ham's F-12 nutrient mix, without supplementation (Invitrogen, Waltham, MA, cat. 11765054), 100 U/mL penicillin-streptomycin (Invitrogen, cat. 15140122), and 2.5% Matrigel (Corning Inc., Corning, NY, cat. 354248) for the first three passages. The 354836-022-R-J1-PDC, 475296-252-R-J1-PDC, and 997726-040-R-J2-PDC lines were cultured in 6A media, which includes advanced DMEM/F-12 (Thermo Fisher Scientific, cat. 12634028), 10 mM HEPES (Thermo Fisher Scientific, cat. 15630080), 1X GlutaMAX supplement (Thermo Fisher Scientific, cat. 35050061), 0.1 mg/mL primocin (InvivoGen, San Diego, CA, cat. ant-pm-2), 10% defined fetal bovine serum, heat inactivated (HyClone Laboratories Inc., Logan, UT, cat. SH30070.03HI), 50% L-WRN conditioned media (ATCC, cat. CRL-3276), 1.25 mM N-Acetyl-L-cysteine (Sigma-Aldrich, cat. A9165), 10 mM nicotinamide (Sigma-Aldrich, cat. N0636), 1X B-27 supplement (Thermo Fisher Scientific, cat. 17504044), 1X N-2 supplement (Thermo Fisher Scientific, cat. 17502048), and 10 microM Y-27632 dihydrochloride (Tocris Bioscience, Bristol, United Kingdom, cat. 1254). The 624824-186-R-J2-PDC line was cultured in 6C/Colon 1B media, which includes all 6A media components plus 50 ng/mL human EGF recombinant protein (Thermo Fisher Scientific, cat. PHG0311). […]
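Note: spheroids exposed to agents for seven days before the viability read.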

As to `C#Cc1c(F)ccc2cc(O)cc(-c3ncc4c(N5CC6CCC(C5)N6)nc(OCC56CCCN5CC(F)C6)nc4c3F)c12` (centres undefined), the viability, T/C was 97.3% [middle of 4 runs] (compound 0.0316 µM); 96.7% [middle of 4 runs] (compound 0.1 µM); 105% [middle of 4 runs] (compound 0.316 µM); 96.1% [middle of 4 runs] (compound 1 µM); 95% [middle of 4 runs] (compound 3.16 µM); 83% [middle of 4 runs] (compound 10 µM). The IC50 (curve of compound) was greater than 10000 nM.
Turning to `C=CC(=O)N1CCN(c2nc(=O)n(-c3c(C)ccnc3C(C)C)c3nc(-c4c(O)cccc4F)c(F)cc23)C(C)C1` (centres undefined), the viability, T/C (compound 0.0316 µM) was 96.2% [middle of 4 runs]; the viability, T/C (compound 0.1 µM) is 92% [middle of 4 runs]; the viability, T/C (compound 0.316 µM) is 99% [middle of 4 runs]; the viability, T/C (compound 1 µM) was 99.8% [middle of 4 runs]; the viability, T/C (compound 3.16 µM) is 93% [middle of 4 runs]. The IC50 (curve of compound) is greater than 10000 nM.
Regarding `CC1(C)CCC(CN2CCN(c3ccc(C(=O)NS(=O)(=O)c4ccc(NCC5CCOCC5)c([N+](=O)[O-])c4)c(Oc4cnc5[nH]ccc5c4)c3)CC2)=C(c2ccc(Cl)cc2)C1`, the viability, T/C (compound 0.1 µM) was 99.5% [middle of 4 runs]; the viability, T/C (compound 0.316 µM) is 96.5% [middle of 4 runs]; the viability, T/C (compound 1 µM) is 96.4% [middle of 4 runs]; the viability, T/C (compound 3.16 µM) was 77.8% [middle of 4 runs].
Take `CC1(C)CCC(Nc2ncc(C(F)(F)F)c(-c3c[nH]c4c(P(C)(C)=O)c(C#N)ccc34)n2)CN1` (centres undefined): the viability, T/C is 54.8% [middle of 4 runs] (compound 0.1 µM), 60.8% [middle of 4 runs] (compound 1 µM), 55.7% [middle of 4 runs] (compound 3.16 µM) and 0.49% [middle of 4 runs] (compound 10 µM).
For `Cn1ncc(Cl)c1-c1cc(C(=O)NC(CN)Cc2cccc(F)c2)sc1Cl` (centres undefined), the viability, T/C reads like this: (compound 0.0316 µM) 94% [middle of 4 runs]; (compound 0.1 µM) 97.8% [middle of 4 runs]; (compound 0.316 µM) 96.6% [middle of 4 runs]; (compound 1 µM) 97.7% [middle of 4 runs]; (compound 10 µM) 35.6% [middle of 4 runs]. Moreover, the IC50 (curve of compound) is 6.53 µM [middle of 4 runs].
Turning to `Cn1cnc2c(F)c(Nc3ccc(Br)cc3Cl)c(C(=O)NOCCO)cc21` + CC(Nc1ccc2c(c1)OCCn1cc(N3C(=O)OCC3C(F)F)nc1-2)C(N)=O, the IC50 worked out at 1400 nM (curve of first compound, second compound 0.00316 µM); 1160 nM (curve of first compound, second compound 0.01 µM); 764 nM (curve of first compound, second compound 0.0316 µM); 982 nM (curve of first compound, second compound 0.1 µM); 495 nM (curve of first compound, second compound 0.316 µM); 408 nM (curve of first compound, second compound 1 µM). For the same molecule, the viability, T/C is 96.5% (second compound 0.00316 µM, first compound 0.00949 µM); 98.9% (second compound 0.00316 µM, first compound 0.03 µM); 83.7% (second compound 0.00316 µM, first compound 0.0949 µM); 76% (second compound 0.00316 µM, first compound 0.3 µM); 56.8% (second compound 0.00316 µM, first compound 0.949 µM); 36.5% (second compound 0.00316 µM, first compound 3 µM). Moreover, the viability, T/C was 94.6% (second compound 0.01 µM, first compound 0.00949 µM); 91% (second compound 0.01 µM, first compound 0.03 µM); 87.8% (second compound 0.01 µM, first compound 0.0949 µM); 71.8% (second compound 0.01 µM, first compound 0.3 µM); 54.7% (second compound 0.01 µM, first compound 0.949 µM); 31.4% (second compound 0.01 µM, first compound 3 µM). Also, the viability, T/C by setting is: (second compound 0.0316 µM, first compound 0.00949 µM) 96.1%; (second compound 0.0316 µM, first compound 0.03 µM) 110%; (second compound 0.0316 µM, first compound 0.0949 µM) 77.2%; (second compound 0.0316 µM, first compound 0.3 µM) 77.5%; (second compound 0.0316 µM, first compound 0.949 µM) 38.3%; (second compound 0.0316 µM, first compound 3 µM) 38.8%. In addition, the viability, T/C by setting is: (second compound 0.1 µM, first compound 0.00949 µM) 106%; (second compound 0.1 µM, first compound 0.03 µM) 86.9%; (second compound 0.1 µM, first compound 0.0949 µM) 87.2%; (second compound 0.1 µM, first compound 0.3 µM) 65.2%; (second compound 0.1 µM, first compound 0.949 µM) 48.9%; (second compound 0.1 µM, first compound 3 µM) 37%. The viability, T/C by setting is: (second compound 0.316 µM, first compound 0.00949 µM) 109%; (second compound 0.316 µM, first compound 0.03 µM) 94.8%; (second compound 0.316 µM, first compound 0.0949 µM) 79.4%; (second compound 0.316 µM, first compound 0.3 µM) 57.4%; (second compound 0.316 µM, first compound 0.949 µM) 39%; (second compound 0.316 µM, first compound 3 µM) 35.9%. Moreover, the viability, T/C is 106% (second compound 1 µM, first compound 0.00949 µM); 85.1% (second compound 1 µM, first compound 0.03 µM); 79.7% (second compound 1 µM, first compound 0.0949 µM); 51.6% (second compound 1 µM, first compound 0.3 µM); 37.5% (second compound 1 µM, first compound 0.949 µM); 26.4% (second compound 1 µM, first compound 3 µM).
